Reference: patent US9957268B2, “1H-pyrrolo[2,3,c]pyridin-7(6H)-ones and pyrazolo[3,4-c]pyridin-7(6H)-ones as inhibitors of BET proteins” (Incyte Corporation, priority 2014, dated 2018)

Assays:
BRD4-BD1 = BRD4-BD1 (Homo sapiens (Human), UniProt O60885); assay: BRD4 AlphaScreen assay (BRD4-BD1); type: binding; conditions: biotin-labeled tetra-acetylated histone H4 peptide
Description: (§1) BRD4-BD1 and BRD4-BD2 assays were conducted in white 384-well polystyrene plate in a final volume of 40 μL for BD1 and 60 μL for BD2. Inhibitors were first serially diluted in DMSO and added to the plate wells before the addition of other reaction components. The final concentration of DMSO in the assay was 1.25% (BD1) and 0.83% (BD2). The assays were carried out at room temperature in the assay buffer (50 mM Tris-HCl, pH 7.5, 0.01% Tween-20, 0.01% BSA, 5 mM DTT), containing 50 nM Biotin-labeled tetra-acetylated histone H4 peptide (H4Ac4) and BRD4-BD1 or BRD4-BD2 protein at concentration less than 1 nM. The incubation for 75 min. was followed by the addition of 20 μL of assay buffer supplemented with Streptavidin donor beads (PerkinElmer 6760002) and GSH Acceptor beads (PerkinElmer-AL109C) at final concentration 2-4 μg/mL under reduced light. After plate sealing, the plate was incubated in the dark at room temperature for 75 min. before reading on a PHERAstar FS plate reader (BMG Labtech). IC50 determination was performed by fitting the curve of percent control activity versus the log of the inhibitor concentration using the GraphPad Prism 5.0 software.

BRD4-BD2 = BRD4-BD2 (Homo sapiens (Human), UniProt O60885); assay: BRD4 AlphaScreen assay (BRD4-BD2); type: binding; conditions: biotin-labeled tetra-acetylated histone H4 peptide
Description: as §1

| IC50 (BRD4-BD1) | IC50 (BRD4-BD2) | Structure (SMILES) |
| --- | --- | --- |
| ≤ 100 nM | ≤ 100 nM | CC(O)c1cc(-c2cn(C)c(=O)c3[nH]ccc23)c2c(c1)N(C)C(=O)C(C)(C)O2 (single isomer, unassigned) [Example 83B, 6-(1-hydroxyethyl)-2,2,4-trimethyl-8-(6-methyl-7-oxo-6,7-dihydro-1H-pyrrolo[2,3-c]pyridin-4-yl)-2H-1,4-benzoxazin-3(4H)-one] |
| ≤ 100 nM | ≤ 100 nM | COc1cc2c(c(-c3cn(C)c(=O)c4[nH]ccc34)c1)OC(C1CCCC1)C(=O)N2 (single isomer, unassigned) [Example 35B, 2-Cyclopentyl-6-methoxy-8-(6-methyl-7-oxo-6,7-dihydro-1H-pyrrolo[2,3-c]pyridin-4-yl)-2H-1,4-benzoxazin-3(4H)-one] |
| ≤ 100 nM | ≤ 100 nM | Cn1cc(-c2cccc3c2OC(c2ccccc2)C(=O)N3)c2cc[nH]c2c1=O (stereo not drawn) [Example 1, 8-(6-methyl-7-oxo-6,7-dihydro-1H-pyrrolo[2,3-c]pyridin-4-yl)-2-phenyl-2H-1,4-benzoxazin-3(4H)-one] |
| ≤ 100 nM | ≤ 100 nM | COc1cc2c(c(-c3cn(C)c(=O)c4[nH]ccc34)c1)OC(C(C)C)C(=O)N2 (single isomer, unassigned) [Example 9B, 2-isopropyl-6-methoxy-8-(6-methyl-7-oxo-6,7-dihydro-1H-pyrrolo[2,3-c]pyridin-4-yl)-2H-1,4-benzoxazin-3(4H)-one] |
| 100 to 1000 nM | ≤ 100 nM | CCC1Oc2c(cccc2-c2cn(C)c(=O)c3[nH]ccc23)NC1=O (stereo not drawn) [Example 4, 2-ethyl-8-(6-methyl-7-oxo-6,7-dihydro-1H-pyrrolo[2,3-c]pyridin-4-yl)-2H-1,4-benzoxazin-3(4H)-one] |
| ≤ 100 nM | ≤ 100 nM | COc1cc(-c2cn(C)c(=O)c3[nH]ccc23)c2c(c1)N(C)C(=O)C(C(C)C)O2 (stereo not drawn) [Example 10, 2-isopropyl-6-methoxy-4-methyl-8-(6-methyl-7-oxo-6,7-dihydro-1H-pyrrolo[2,3-c]pyridin-4-yl)-2H-1,4-benzoxazin-3(4H)-one] |
| 100 to 1000 nM | ≤ 100 nM | CC(C)C1Oc2c(cc([N+](=O)[O-])cc2-c2cn(C)c(=O)c3[nH]ccc23)NC1=O (stereo not drawn) [Example 21, 2-isopropyl-8-(6-methyl-7-oxo-6,7-dihydro-1H-pyrrolo[2,3-c]pyridin-4-yl)-6-nitro-2H-1,4-benzoxazin-3(4H)-one] |
| ≤ 100 nM | ≤ 100 nM | CCS(=O)(=O)c1cc(-c2cn(C)c(=O)c3[nH]ccc23)c2c(c1)N(C)C(=O)C(C)(C)O2 [Example 76, 6-(ethylsulfonyl)-2,2,4-trimethyl-8-(6-methyl-7-oxo-6,7-dihydro-1H-pyrrolo[2,3-c]pyridin-4-yl)-2H-1,4-benzoxazin-3(4H)-one] |
| ≤ 100 nM | ≤ 100 nM | CC(C)C1Oc2c(-c3cn(C)c(=O)c4[nH]ccc34)cc(S(C)(=O)=O)cc2N(CC2CC2)C1=O (stereo not drawn) [Example 53, 4-(cyclopropylmethyl)-2-isopropyl-8-(6-methyl-7-oxo-6,7-dihydro-1H-pyrrolo[2,3-c]pyridin-4-yl)-6-(methyslulfonyl)-2H-1,4-benzoxazin-3(4H)-one] |
| ≤ 100 nM | ≤ 100 nM | CC(C)[C@H]1Nc2c(cc(S(C)(=O)=O)cc2-c2cn(C)c(=O)c3[nH]ccc23)NC1=O [Example 61, (3R)-3-isopropyl-5-(6-methyl-7-oxo-6,7-dihydro-1H-pyrrolo[2,3-c]pyridin-4-yl)-7-(methylsulfonyl)-3,4-dihydroquinoxalin-2(1H)-one] |

| Structure (SMILES) | IC50 (BRD4-BD1) | IC50 (BRD4-BD2) |
| --- | --- | --- |
| COc1cc2c(c(-c3cn(C)c(=O)c4[nH]ccc34)c1)OC(c1ccccc1)C(=O)N2 (single isomer, unassigned) [Example 24A, 6-methoxy-8-(6-methyl-7-oxo-6,7-dihydro-1H-pyrrolo[2,3-c]pyridin-4-yl)-2-phenyl-2H-1,4-benzoxazin-3(4H)-one] | ≤ 100 nM | ≤ 100 nM |
| Cn1cc(-c2cccc3c2NC(C)(C)C(=O)N3)c2cc[nH]c2c1=O [Example 32, 3,3-dimethyl-5-(6-methyl-7-oxo-6,7-dihydro-1H-pyrrolo[2,3-c]pyridin-4-yl)-3,4-dihydroquinoxalin-2(1H)-one] | 100 to 1000 nM | ≤ 100 nM |
